Paper PMC4829348 (Journal of medicinal chemistry, 2016)

tested on: A/WSN/33 virus (M2-S31N); format: cell-based, influenza A virus; conditions: not given

SMILES | decrease of plaque number
c1c(CNC23CC4CC(CC(C4)C2)C3)noc1C1CC1 [14c] | more than 50%
c1c(CNC23CC4CC(CC(C4)C2)C3)noc1C1CCC1 [14d] | more than 50%

same assay, conditions: read-out: Plaque Reduction EC50

SMILES | EC50 [µM]
OC12CC3CC(C1)CC(NCc1cc(-c4cccs4)on1)(C3)C2 [compound 30f] | < 1
OC1C2CC3CC1CC(NCc1cc(-c4cccs4)on1)(C3)C2 (centres unmarked) [30b] | < 1

biological target: T1, S31N mutant of the A/M2 protein (Influenza A virus, UniProt P0DOF5, S31N); conditions: 100 µM drug; percent inhibition in TEVC assays was previously reported; cited from earlier work

SMILES | % S31N inhibition
CC(C)c1nc(CNC23CC4CC(CC(C4)C2)C3)no1 [18d] | 70/N.T. %
COc1ccc(-c2cc(CNC34CC5CC(CC(C5)C3)C4)no2)cc1 [14q] | 87/N.T. %
Cc1cc(CNC23CC4CC(CC(C4)C2)C3)no1 [14a] | 49/N.T. %
COc1ccc(-c2nc(CNC34CC5CC(CC(C5)C3)C4)no2)cc1 [18k] | 86/N.T. %
c1csc(-c2nc(CNC34CC5CC(CC(C5)C3)C4)no2)c1 [18f] | 83/N.T. %
c1ccc(-c2nc(CNC34CC5CC(CC(C5)C3)C4)no2)cc1 [18i] | 75/N.T. %
c1ccc(-c2cc(CNC34CC5CC(CC(C5)C3)C4)no2)cc1 [14l] | 91/N.T. %
Cc1nc(CNC23CC4CC(CC(C4)C2)C3)no1 [18a] | 60/N.T. %

biological target: T1, S31N mutant of the A/M2 protein; format: biochemical; conditions: not given

SMILES | % S31N inhibition
c1coc(-c2nc(CNC34CC5CC(CC(C5)C3)C4)no2)c1 [18h] | 73/N.T. %
c1ccc(-c2nnc(CNC34CC5CC(CC(C5)C3)C4)o2)cc1 [26c] | 61/N.T. %
c1csc(-c2cc(CNC34CC5COC(CC(C5)C3)C4)no2)c1 (centres unmarked) [30e] | 72/N.T. %
c1csc(-c2cc(CNC34CC5CC(C3)C3(CO3)C(C5)C4)no2)c1 (centres unmarked) [30d] | 61/N.T. %
c1cc(-c2cc(CNC34CC5CC(CC(C5)C3)C4)no2)cs1 [14i] | 90/N.T. %
CC1(O)C2CC3CC1CC(NCc1cc(-c4cccs4)on1)(C3)C2 (centres unmarked) [30c] | 87/48%
c1c(C2CCCCC2)noc1CNC12CC3CC(CC(C3)C1)C2 [20c] | 67/N.T. %
COc1ccccc1-c1noc(CNC23CC4CC(CC(C4)C2)C3)n1 [20b] | 58/N.T. %
c1coc(-c2cc(CNC34CC5CC(CC(C5)C3)C4)no2)c1 [14j] | 84/N.T. %
CCCc1nc(CNC23CC4CC(CC(C4)C2)C3)no1 [18b] | 77/19%
CSc1ccccc1-c1cc(CNC23CC4CC(CC(C4)C2)C3)no1 [14s] | 79/N.T. %
CCCc1cc(CNC23CC4CC(CC(C4)C2)C3)no1 [14b] | 81/49%
O=C1C2CC3CC1CC(NCc1cc(-c4cccs4)on1)(C3)C2 [30a] | 78/N.T. %
COc1ccc(-c2nnc(CNC34CC5CC(CC(C5)C3)C4)o2)cc1 [26d] | 58/N.T. %
OC12CC3CC(O)(C1)CC(NCc1cc(-c4cccs4)on1)(C3)C2 [compound 30h] | 88/45%
CC(C)c1cc(CNC23CC4CC(CC(C4)C2)C3)no1 [14f] | 80/55%
COc1ccc(-c2nc(CNC34CC5CC(CC(C5)C3)C4)no2)c(OC)c1 [compound 18m] | 82/N.T. %
c1c(CNC23CC4CC(CC(C4)C2)C3)noc1C1CCC1 [14d] | 84/N.T. %
c1csc(-c2nnc(CNC34CC5CC(CC(C5)C3)C4)o2)c1 [26a] | 52/N.T. %

SMILES | % S31N inhibition
COc1ccc(-c2noc(CNC34CC5CC(CC(C5)C3)C4)n2)cc1OC [20a] | 39/N.T. %
NC12CC3CC(CC(C3)C1)C2 [AMT (1), amantadine, reference compound] | 36%
c1ccc(-c2nc(CNC34CC5CC(CC(C5)C3)C4)cs2)cc1 [26i] | 24/N.T. %
Oc1ccc(NC23CC4CC(CC(C4)C2)C3)c(O)c1 [compound 5] | 67%
c1csc(-c2ncc(CNC34CC5CC(CC(C5)C3)C4)s2)c1 [26e] | 75/N.T. %
OC1C2CC3CC1CC(NCc1cc(-c4cccs4)on1)(C3)C2 (centres unmarked) [30b] | 91/56%
Brc1ccccc1-c1cc(CNC23CC4CC(CC(C4)C2)C3)no1 [14n] | 77/N.T. %
COc1ccsc1-c1cc(CNC23CC4CC(CC(C4)C2)C3)no1 [14k] | 90/87%
Fc1cccc(F)c1-c1cc(CNC23CC4CC(CC(C4)C2)C3)no1 [14p] | 85/68%
Fc1cc(F)cc(-c2cc(CNC34CC5CC(CC(C5)C3)C4)no2)c1 [14o] | 78/N.T. %
COc1ccc(-c2cc(CNC34CC5CC(CC(C5)C3)C4)no2)c(OC)c1 [compound 14t] | 62/N.T. %
COCc1cc(CNC23CC4CC(CC(C4)C2)C3)no1 [14e] | 39/N.T. %
COc1cccc(-c2cc(CNC34CC5CC(CC(C5)C3)C4)no2)c1 [14r] | 87/73%
CSC(C)(C)Cc1cc(CNC23CC4CC(CC(C4)C2)C3)no1 [14g] | 70/N.T. %
c1csc(-c2nnc(CNC34CC5CC(CC(C5)C3)C4)s2)c1 [26b] | 83/N.T. %
CC(C)Cc1nc(CNC23CC4CC(CC(C4)C2)C3)no1 [18e] | 62/N.T. %
c1csc(-c2nc(CNC34CC5CC(CC(C5)C3)C4)cs2)c1 [26h] | 37/N.T. %
c1cc(-c2nc(CNC34CC5CC(CC(C5)C3)C4)no2)cs1 [18g] | 81/N.T. %
Clc1ccccc1-c1cc(CNC23CC4CC(CC(C4)C2)C3)no1 [14m] | 87/65%
